The supplement of paper PMC10307832

Key:
Assay in all cases: relative viability (nuclei count vs DMSO), 5 days (fraction); higher = more cells survive
[1] = compound: Nc1nc(Nc2ccc3c(c2)CC[C@@H](N2CCCC2)CC3)nn1-c1cc2c(nn1)-c1ccccc1CCC2 [Bemcentinib] + C[C@]1(O)C[C@@H](c2nc(-c3ccc4ccc(-c5ccccc5)nc4c3)c3c(N)nccn32)C1 [Linsitinib] (partner 1 µM)
How it was run: (§1)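 After 5 days of treatment, lung cancer cells in 1536-well plates were fixed and stained in a single step (final 0.05% Triton X-100, 1% formaldehyde, 1 ug/ml Hoechst) and their nuclei counted on 4× images. Treatment had been applied by pin tool the day after seeding as one drug alone or as a fixed anchor-drug dose with five library-drug doses (not always all listed) in √10 steps. Relative viability is the nuclei count of treated wells divided by that of vehicle wells, and values are medians of duplicate plates.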

[2] = compound: CNC(=O)c1ccccc1Sc1ccc2c(/C=C/c3ccccn3)n[nH]c2c1 [Axitinib] + CS(=O)(=O)CCNCc1ccc(-c2ccc3ncnc(Nc4ccc(OCc5cccc(F)c5)c(Cl)c4)c3c2)o1 [Lapatinib] (partner 2 µM)
How it was run: as §1

[3] = compound: Nc1nc(Nc2ccc3c(c2)CC[C@@H](N2CCCC2)CC3)nn1-c1cc2c(nn1)-c1ccccc1CCC2 [Bemcentinib] + CC1(C)CCC(c2ccc(Cl)cc2)=C(CN2CCN(c3ccc(C(=O)NS(=O)(=O)c4ccc(N[C@H](CCN5CCOCC5)CSc5ccccc5)c(S(=O)(=O)C(F)(F)F)c4)cc3)CC2)C1 [Navitoclax] (partner 0.5 µM)
How it was run: as §1

[4] = compound: CC1=CC=C(C=C1)C(=O)CN2C3=C(CCCC3)SC2=N [Pifithrin_alpha] + CS(=O)(=O)N1CCN(Cc2cc3nc(-c4cccc5[nH]ncc45)nc(N4CCOCC4)c3s2)CC1 [Pictilisib] (partner 1 µM)
How it was run: as §1

Row | Cell Line | relative viability ([1]; first compound 0.04 µM) | relative viability ([1]; first compound 0.1265 µM) | relative viability ([1]; first compound 0.4 µM) | relative viability ([1]; first compound 1.265 µM) | relative viability ([1]; first compound 4 µM) | relative viability ([2]; first compound 0.005 µM) | relative viability ([2]; first compound 0.01581 µM) | relative viability ([2]; first compound 0.05 µM) | relative viability ([2]; first compound 0.1581 µM) | relative viability ([2]; first compound 0.5 µM) | relative viability ([3]; first compound 0.04 µM) | relative viability ([3]; first compound 0.1265 µM) | relative viability ([3]; first compound 0.4 µM) | relative viability ([3]; first compound 1.265 µM) | relative viability ([3]; first compound 4 µM) | relative viability ([4]; first compound 1 µM) | relative viability ([4]; first compound 3.162 µM) | relative viability ([4]; first compound 10 µM) | relative viability ([4]; first compound 31.62 µM) | relative viability ([4]; first compound 100 µM)
1 | NCI-H1792 | 0.539 | 0.441 | 0.676 | 0.645 | 0.556 | 0.921 | 0.834 | 1.01 | 0.876 | 0.653 | 0.668 | 0.57 | 0.859 | 0.697 | 0.665 | 0.156 | 0.244 | 0.205 | 0.178 | 0.217
2 | UMC-11 | 1.01 | 1.08 | 1.06 | 0.978 | 0.977 | 0.945 | 1.06 | 0.959 | 0.916 | 0.943 | 0.274 | 0.327 | 0.34 | 0.317 | 0.307 | 0.775 | 0.802 | 0.888 | 0.604 | 1.03
3 | PC-3 [JPC-3] | 0.967 | 0.999 | 0.902 | 0.957 | 1.07 | 0.483 | – | 0.453 | 0.445 | 0.447 | 0.803 | 0.827 | 0.865 | 0.848 | 0.826 | 0.547 | 0.757 | 0.629 | 0.569 | 0.597
4 | LU99A | 0.524 | 0.555 | 0.56 | 0.499 | 0.562 | 0.879 | 0.987 | 0.885 | 1.04 | 1.04 | 0.766 | 0.93 | 0.697 | 0.755 | 0.821 | 0.35 | 0.311 | 0.325 | – | 0.305
5 | CAL-12T | 0.865 | 0.821 | 0.927 | 0.823 | 0.863 | 0.712 | 0.693 | 0.609 | 0.645 | 0.624 | 1.12 | 1.28 | 1.25 | 1.19 | 1.32 | 0.415 | 0.385 | 0.348 | 0.347 | 0.331
6 | NCI-H2087 | 0.957 | 0.975 | 1.09 | 0.891 | 1.09 | 1 | 1.26 | 0.947 | 0.864 | 1.2 | 1.16 | 1.03 | 1.15 | 0.992 | 1.02 | 0.74 | 0.872 | 0.894 | 0.453 | 0.757
7 | LCLC-97TM1 | 0.183 | 0.216 | – | 0.204 | 0.196 | 0.74 | 1.17 | 1.01 | 0.927 | 0.725 | 0.398 | 0.487 | – | 0.479 | 0.636 | – | 0.179 | 0.224 | – | 0.229
8 | BEN | 0.915 | 1.09 | 0.986 | 0.886 | 0.907 | 0.695 | 0.648 | 0.592 | 0.563 | 0.497 | 0.0583 | 0.0756 | 0.0599 | 0.055 | 0.0552 | 0.445 | 0.576 | 0.64 | 0.618 | 0.543
9 | NCI-H727 | 0.331 | 0.286 | 0.288 | 0.3 | 0.293 | 1.05 | 0.952 | 0.71 | 0.867 | 0.953 | 0.348 | 0.389 | 0.435 | 0.382 | 0.522 | 0.347 | 0.466 | 0.369 | 0.316 | 0.227
10 | NCI-H1915 | 1.05 | 1.13 | 1.1 | 1.11 | 1.1 | 0.994 | 0.99 | 0.994 | 0.922 | 1 | 0.805 | 0.81 | 0.817 | 0.788 | 0.788 | 0.763 | 0.902 | 0.775 | – | 0.838
11 | HARA | 1.01 | 1.07 | 1.01 | 0.994 | 1.05 | 0.63 | 0.593 | 0.718 | 0.621 | 0.602 | 1.18 | 1.18 | 1.2 | 1.13 | 1.16 | 0.335 | 0.275 | 0.4 | 0.234 | 0.251
12 | EMC-BAC-2 | 0.816 | 0.845 | 0.879 | 0.889 | 0.871 | 0.917 | 0.869 | 0.947 | 0.915 | 0.803 | 1.15 | 1.35 | 1.27 | 1.2 | 1.23 | 0.511 | 0.566 | 0.55 | 0.456 | 0.545
13 | NCI-H1703 | 0.675 | 0.776 | 0.798 | 0.638 | 0.746 | 0.848 | 0.423 | 0.274 | 0.273 | 0.441 | 1.08 | 1.03 | 1.34 | 1.04 | 0.85 | 0.25 | 0.24 | 0.261 | 0.214 | 0.251
14 | HCC-44 | 0.702 | 0.74 | 0.736 | 0.714 | 0.771 | 1.08 | 1.02 | 1.01 | 1.09 | 1.01 | 1.09 | 1.13 | 1.01 | 1.12 | 1.02 | 0.433 | 0.475 | 0.539 | 0.408 | 0.423
